Laboratory results reported in US20190216956A1, “COMPOSITIONS FOR RADIOTHERAPY AND USES THEREOF” (priority 2016, published 2019).

What was measured:
NCI-2052H cells [1] = assay: Cytotoxicity assay (MTS) of NCI-2052H cells: bleomycin, mitomycin, doxorubicin, paclitaxel, talc, talc bound to drugs (Example 23); type: cell-based; settings: absorbance 490 nm
NCI-28H cells = assay: Cytotoxicity assay (MTS) of NCI-28H cells: carboplatin, mitomycin, gemcitabine, talc, talc bound to drugs (Example 22); settings: NCI-28H cells; for Average absorbance readings: cells + drug, mitomycin: 490 nm
Method: Read absorbance (MTS assay) and calculate cells survive rate. Compare survival rate
1. Set up 3 cytotoxicity plates for tomorrow experiment: trypsinize NCI-28H cells (T-75 flask, passage 12): • Remove old medium, wash cells with 7 ml DPBS, remove DPBS, add 2 ml trypsin, incubate plates for 1-2′, when cells detached add 6 ml fresh medium, mix cells and medium. • Count cells under the microscope using the glass slide. […] If we need 200 wells, in each well will be 5,000 cells in 0.1 ml; so total we need 1,000,000 cells in 20 ml.
2. […] Final solution is 500 μL of 500 μM carboplatin.
4. […] Final solution is 500 μL of 200 μM Gemcitabine.
(§1) 1. Centrifuge tubes at 3200 rpm for 3 min. Take out supernatant.
3. Add 100 μL of each 8 preparations of diluted carboplatin (step 1 and 2) to the proper wells according to a plate layout.
4. Add 100 μL of each 8 preparations of diluted Gemcitabine (step 1, 2, 3) to the proper wells according to a plate layout.
6. Check the plate and start incubation at 37° C./5% CO2.
3. Wash all cells 1×300 μL DPBS, remove final wash.

NCI-2052H cells [2] = assay: Repeated cytotoxicity experiment (MTS): NCI-2052H cells, mitomycin, talc, talc bound to mitomycin (Example 24); type: cell-based; settings: for Average reading: drug + cells: absorbance 490 nm
Method: Compare survival rate of cells.
1. […] Protocol how to do that see in previous cytotoxicity experiment.
as §1
1. Incubate plate for 72 hrs at 37° C., 5% CO2.
3. Wash all wells 1×300 μL DPBS, remove final wash.

SMILES: CO[C@@]12[C@H](COC(N)=O)C3=C(C(=O)C(C)=C(N)C3=O)N1C[C@@H]1N[C@@H]12 [mitomycin]
- Average reading: cells + drug, mitomycin (NCI-2052H cells [1]; mitomycin 0.013 μM): 1.284
- Average reading: cells + drug, mitomycin (NCI-2052H cells [1]; mitomycin 0.064 μM): 1.199
- Average reading: cells + drug, mitomycin (NCI-2052H cells [1]; mitomycin 8 μM): 0.4142
- Average reading: cells + drug, mitomycin (NCI-2052H cells [1]; mitomycin 40 μM): 0.2305
- Average reading: cells + drug, mitomycin (NCI-2052H cells [1]; mitomycin 200 μM): 0.2098
- Average reading: cells + drug, mitomycin (NCI-2052H cells [1]; mitomycin .0026 μM): 1.424
- Average absorbance readings: cells + drug, mitomycin (NCI-28H cells; mitomycin 0.0026 μM): 2.032
- % survival cells after exposure to drug for 72 hrs (cells + drug only), mitomycin (NCI-28H cells; mitomycin 0.0026 μM): 106.12%
- Average absorbance readings: cells + drug, mitomycin (NCI-28H cells; mitomycin 0.013 μM): 1.965
- % survival cells after exposure to drug for 72 hrs (cells + drug only), mitomycin (NCI-28H cells; mitomycin 0.013 μM): 102.65%
- Average absorbance readings: cells + drug, mitomycin (NCI-28H cells; mitomycin 0.064 μM): 1.8766
- % survival cells after exposure to drug for 72 hrs (cells + drug only), mitomycin (NCI-28H cells; mitomycin 0.064 μM): 98.03%
- Average absorbance readings: cells + drug, mitomycin (NCI-28H cells; mitomycin 8 μM): 0.3451
- % survival cells after exposure to drug for 72 hrs (cells + drug only), mitomycin (NCI-28H cells; mitomycin 8 μM): 18.03%
- Average absorbance readings: cells + drug, mitomycin (NCI-28H cells; mitomycin 40 μM): 0.52
- % survival cells after exposure to drug for 72 hrs (cells + drug only), mitomycin (NCI-28H cells; mitomycin 40 μM): 27.16%
- Average absorbance readings: cells + drug, mitomycin (NCI-28H cells; mitomycin 200 μM): 0.2464
- % survival cells after exposure to drug for 72 hrs (cells + drug only), mitomycin (NCI-28H cells; mitomycin 200 μM): 12.87%
- Average reading: drug + cells (NCI-2052H cells [2]; Mitomycin 0.013 uM): 0.7907
- Average reading: drug + cells (NCI-2052H cells [2]; Mitomycin 0.064 uM): 0.8267
- Average reading: drug + cells (NCI-2052H cells [2]; Mitomycin 8 uM): 0.4217
- Average reading: drug + cells (NCI-2052H cells [2]; Mitomycin 40 uM): 0.2257
- Average reading: drug + cells (NCI-2052H cells [2]; Mitomycin 200 uM): 0.2243
- Average reading: drug + cells (NCI-2052H cells [2]; Mitomycin .0026 uM): 0.8637
- % survival from untreated cells (NCI-2052H cells [2]; mitomycin 0.0026 (uM per Table 103)): 78.87%
- % survival from untreated cells (NCI-2052H cells [2]; mitomycin 0.013 (uM per Table 103)): 72.21%
- % survival from untreated cells (NCI-2052H cells [2]; mitomycin 0.064 (uM per Table 103)): 75.49%
- % survival from untreated cells (NCI-2052H cells [2]; mitomycin 0.32 (uM per Table 103)): 75.10%
- % survival from untreated cells (NCI-2052H cells [2]; mitomycin 1.6 (uM per Table 103)): 61.83%
- % survival from untreated cells (NCI-2052H cells [2]; mitomycin 8 (uM per Table 103)): 38.51%
- % survival from untreated cells (NCI-2052H cells [2]; mitomycin 40 (uM per Table 103)): 20.61%
- % survival from untreated cells (NCI-2052H cells [2]; mitomycin 200 (uM per Table 103)): 20.49%
